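A five-concentration, 48-hour dose response in 96-well plates underlies each endpoint, interpolated linearly between surrounding concentrations. GI50: concentration for 50% inhibition of growth.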 The source made the active and inactive calls. No stated cut-off is given here; in the data, active = GI50 up to about 1.1 µM and inactive = higher.
Assays:
Assay in all cases: NCI tumour cell line growth inhibition, 48 h
[1] = tested on: 786-0
[2] = tested on: A498
[3] = tested on: A549
[4] = tested on: ACHN
[5] = tested on: BT-549
[6] = tested on: CAKI-1
[7] = tested on: COLO 205
[8] = tested on: DU-145
[9] = tested on: EKVX
[10] = tested on: HCC 2998
[11] = tested on: HCT-116
[12] = tested on: HCT-15
[13] = tested on: HOP-62
[14] = tested on: HOP-92
[15] = tested on: HT-29
[16] = tested on: Hs-578T
[17] = tested on: IGROV-1
[18] = tested on: K562
[19] = tested on: M14
[20] = tested on: MCF7
[21] = tested on: MDA-MB-231
[22] = tested on: MDA-MB-435
[23] = tested on: MDA-N
[24] = tested on: NCI-H226
[25] = tested on: NCI-H23
[26] = tested on: NCI-H460
[27] = tested on: NCI-H522
[28] = tested on: OVCAR-4
[29] = tested on: OVCAR-5
[30] = tested on: OVCAR-8
[31] = tested on: PC-3
[32] = tested on: RPMI-8226
[33] = tested on: RXF 393
[34] = tested on: SF-268
[35] = tested on: SF-295
[36] = tested on: SF-539
[37] = tested on: SK-MEL-28
[38] = tested on: SK-MEL-2
[39] = tested on: SK-MEL-5
[40] = tested on: SK-OV-3
[41] = tested on: SN12C
[42] = tested on: SNB-19
[43] = tested on: SNB-75
[44] = tested on: SW-620
[45] = tested on: T47D
[46] = tested on: TK-10
[47] = tested on: U-251
[48] = tested on: UACC-257
[49] = tested on: UACC-62
[50] = tested on: UO-31
[51] = tested on: CCRF-CEM
[52] = tested on: HL-60
[53] = tested on: KM12
[54] = tested on: LOX IMVI
[55] = tested on: MOLT-4
[56] = tested on: Malme-3M
[57] = tested on: OVCAR-3
[58] = tested on: SR

O=C1NC(=O)c2ccc([N+](=O)[O-])c3cccc1c23
GI50 [1]: 14 µM (inactive) | GI50 [2]: 13.2 µM (inactive) | GI50 [3]: 20.8 µM (inactive) | GI50 [4]: 19 µM (inactive) | GI50 [5]: 19.2 µM (inactive) | GI50 [6]: 23.5 µM (inactive) | GI50 [7]: 14.9 µM (inactive) | GI50 [8]: 34 µM (inactive) | GI50 [9]: 28.3 µM (inactive) | GI50 [10]: 24.7 µM (inactive) | GI50 [11]: 11.7 µM (inactive) | GI50 [12]: 5.31 µM | GI50 [13]: 20 µM (inactive) | GI50 [14]: 20 µM (inactive) | GI50 [15]: 16 µM (inactive) | GI50 [16]: 25.2 µM (inactive) | GI50 [17]: 15.9 µM (inactive) | GI50 [18]: 10.9 µM (inactive) | GI50 [19]: 14.8 µM (inactive) | GI50 [20]: 11.2 µM (inactive) | GI50 [21]: 17.1 µM (inactive) | GI50 [22]: 16.4 µM (inactive) | GI50 [23]: 12.4 µM (inactive) | GI50 [24]: 14.3 µM (inactive) | GI50 [25]: 17.1 µM (inactive) | GI50 [26]: 11.5 µM (inactive) | GI50 [27]: 2.01 µM (inactive) | GI50 [28]: 20 µM (inactive) | GI50 [29]: 18.3 µM (inactive) | GI50 [30]: 12.6 µM (inactive) | GI50 [31]: 17.4 µM (inactive) | GI50 [32]: 14.5 µM (inactive) | GI50 [33]: 15.5 µM (inactive) | GI50 [34]: 24.4 µM (inactive) | GI50 [35]: 17.6 µM (inactive) | GI50 [36]: 17.9 µM (inactive) | GI50 [37]: 20.2 µM (inactive) | GI50 [38]: 32.3 µM (inactive) | GI50 [39]: 18.9 µM (inactive) | GI50 [40]: 23.1 µM (inactive) | GI50 [41]: 17.4 µM (inactive) | GI50 [42]: 19.5 µM (inactive) | GI50 [43]: 40.1 µM (inactive) | GI50 [44]: 13 µM (inactive) | GI50 [45]: 18.6 µM (inactive) | GI50 [46]: 19.6 µM (inactive) | GI50 [47]: 15.4 µM (inactive) | GI50 [48]: 16.9 µM (inactive) | GI50 [49]: 13.9 µM (inactive) | GI50 [50]: 16.3 µM (inactive)

CCC(=O)NC(Nc1ccc(O)cc1)(C(F)(F)F)C(F)(F)F
GI50 [2]: > 100 µM (inactive) | GI50 [4]: 56 µM (inactive) | GI50 [5]: 28.1 µM (inactive) | GI50 [51]: 19.6 µM (inactive) | GI50 [8]: > 100 µM (inactive) | GI50 [9]: > 100 µM (inactive) | GI50 [10]: > 100 µM (inactive) | GI50 [11]: 46.3 µM (inactive) | GI50 [12]: 29.9 µM | GI50 [52]: 18.5 µM (inactive) | GI50 [13]: > 100 µM (inactive) | GI50 [15]: > 100 µM (inactive) | GI50 [16]: > 100 µM (inactive) | GI50 [18]: 33.1 µM (inactive) | GI50 [53]: 62.7 µM (inactive) | GI50 [54]: 33.6 µM (inactive) | GI50 [19]: 80.5 µM (inactive) | GI50 [20]: 46.3 µM (inactive) | GI50 [21]: 73.8 µM (inactive) | GI50 [22]: 25.2 µM (inactive) | GI50 [23]: 17.9 µM (inactive) | GI50 [55]: 42.5 µM (inactive) | GI50 [56]: 42.2 µM (inactive) | GI50 [24]: > 100 µM (inactive) | GI50 [25]: 67.8 µM (inactive) | GI50 [26]: > 100 µM (inactive) | GI50 [27]: 27.4 µM (inactive) | GI50 [57]: 40.6 µM (inactive) | GI50 [29]: > 100 µM (inactive) | GI50 [32]: 33.3 µM (inactive) | GI50 [33]: 28.8 µM (inactive) | GI50 [34]: > 100 µM (inactive) | GI50 [36]: 96.4 µM (inactive) | GI50 [37]: > 100 µM (inactive) | GI50 [38]: 41.6 µM (inactive) | GI50 [40]: > 100 µM (inactive) | GI50 [41]: > 100 µM (inactive) | GI50 [42]: > 100 µM (inactive) | GI50 [43]: > 100 µM (inactive) | GI50 [58]: 36.5 µM (inactive) | GI50 [45]: 49.4 µM (inactive) | GI50 [46]: > 100 µM (inactive) | GI50 [47]: 73.6 µM (inactive) | GI50 [48]: 37.4 µM (inactive) | GI50 [49]: 40.1 µM (inactive) | GI50 [50]: 35.6 µM (inactive)

CC1=C(C(=O)Nc2cccc3c2C(=O)NC3=O)CC(C(=O)Nc2cccc3c2C(=O)NC3=O)=C(C)N1
GI50 [1]: > 100 µM (inactive) | GI50 [2]: > 100 µM (inactive) | GI50 [3]: > 100 µM (inactive) | GI50 [4]: > 100 µM (inactive) | GI50 [5]: > 100 µM (inactive) | GI50 [6]: > 100 µM (inactive) | GI50 [51]: > 100 µM (inactive) | GI50 [7]: 40.7 µM (inactive) | GI50 [8]: > 100 µM (inactive) | GI50 [9]: > 100 µM (inactive) | GI50 [10]: 95.5 µM (inactive) | GI50 [11]: > 100 µM (inactive) | GI50 [12]: > 100 µM | GI50 [52]: > 100 µM (inactive) | GI50 [13]: > 100 µM (inactive) | GI50 [14]: > 100 µM (inactive) | GI50 [16]: > 100 µM (inactive) | GI50 [17]: > 100 µM (inactive) | GI50 [18]: > 100 µM (inactive) | GI50 [53]: > 100 µM (inactive) | GI50 [54]: > 100 µM (inactive) | GI50 [19]: > 100 µM (inactive) | GI50 [20]: > 100 µM (inactive) | GI50 [21]: > 100 µM (inactive) | GI50 [22]: > 100 µM (inactive) | GI50 [23]: > 100 µM (inactive) | GI50 [55]: > 100 µM (inactive) | GI50 [56]: > 100 µM (inactive) | GI50 [25]: > 100 µM (inactive) | GI50 [26]: > 100 µM (inactive) | GI50 [27]: > 100 µM (inactive) | GI50 [57]: > 100 µM (inactive) | GI50 [28]: > 100 µM (inactive) | GI50 [29]: > 100 µM (inactive) | GI50 [31]: > 100 µM (inactive) | GI50 [32]: > 100 µM (inactive) | GI50 [33]: > 100 µM (inactive) | GI50 [34]: > 100 µM (inactive) | GI50 [35]: > 100 µM (inactive) | GI50 [36]: > 100 µM (inactive) | GI50 [37]: > 100 µM (inactive) | GI50 [38]: > 100 µM (inactive) | GI50 [39]: > 100 µM (inactive) | GI50 [40]: > 100 µM (inactive) | GI50 [41]: > 100 µM (inactive) | GI50 [42]: > 100 µM (inactive) | GI50 [43]: 88.3 µM (inactive) | GI50 [58]: > 100 µM (inactive) | GI50 [44]: > 100 µM (inactive) | GI50 [45]: > 100 µM (inactive) | GI50 [46]: > 100 µM (inactive) | GI50 [47]: > 100 µM (inactive) | GI50 [48]: > 100 µM (inactive) | GI50 [49]: > 100 µM (inactive) | GI50 [50]: > 100 µM (inactive)

From ChEMBL document CHEMBL1201862, “PubChem BioAssay data set” (2004)
